This note sets out measurements from article PMC4304192, “KUD773, a phenylthiazole derivative, displays anticancer activity in human hormone-refractory prostate cancers through inhibition of tubulin polymerization and anti-Aurora A activity” (Journal of Biomedical Science, 2015).

This assay addresses T1, Aurora A kinase (Homo sapiens, UniProt O14965).
T1 construct: gene AURKA
T1 sequence (O14965 1-403): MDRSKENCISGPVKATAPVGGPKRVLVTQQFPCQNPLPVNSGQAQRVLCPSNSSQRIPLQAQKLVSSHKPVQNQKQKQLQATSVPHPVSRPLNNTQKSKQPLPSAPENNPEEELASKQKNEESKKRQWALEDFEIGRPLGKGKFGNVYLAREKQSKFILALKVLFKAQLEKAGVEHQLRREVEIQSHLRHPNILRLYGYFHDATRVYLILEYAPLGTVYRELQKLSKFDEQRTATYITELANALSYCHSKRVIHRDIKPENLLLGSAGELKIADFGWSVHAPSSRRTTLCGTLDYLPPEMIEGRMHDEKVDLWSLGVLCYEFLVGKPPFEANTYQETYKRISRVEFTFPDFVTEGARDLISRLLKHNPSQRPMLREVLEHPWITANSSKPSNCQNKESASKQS
As to the kind of experiment: Aurora A luminescent kinase assay (Kinase-Glo Plus, […] ATP, LRRWSLG peptide substrate). The assay is classed as biochemical. For orientation: Kinase-Glo measures the ATP left after a reaction by luminescence.

With `FC(F)(F)c1cccc(-c2csc(-n3ccnc3)n2)c1` [KUD773, 2-(1H-imidazol-1-yl)-4-(3-(trifluoromethyl)phenyl)thiazole], the half-maximal inhibitory concentration (IC50) – broadly, the concentration that inhibits the measured activity by half – amounted to 30 µM.
